“And” between values parts separate entries of the source, which are not always exact repeats. Equal values may be shown once.
Assay: Solubility of rofecoxib in solvent systems containing two or three solvents; synergistic or antagonist effect
Type: physicochemical
Method: The solubility of rofecoxib in solvent systems containing two or three solvents was determined. In solvent systems containing two solvents, […] of each solvent was added to 100 mg of rofecoxib. In solvent systems containing three solvents, […] of each solvent was added to 100 mg of rofecoxib. The samples were mixed using the protocol for solvent systems containing single solvents above. Serial dilutions of the rofecoxib solvent solutions were made (1:100 v:v), (1:1000 v/v), and (1:2000 v/v). Solvents without rofecoxib were diluted with methanol and used to blank a Beckman DU-7400 spectrophotometer. The absorbance of the samples was determined at a wavelength of 279.1 nm. The concentration of rofecoxib dissolved in the solvent was calculated using Beer's Law. The ability of the solvent systems to synergistically dissolve rofecoxib or antagonistically dissolve rofecoxib (reduce the ability of rofecoxib to dissolve was determined) according to the protocol below. The contribution for solubility of a single solvent in a two-mixture solution was calculated to be ½ of the calculated solubility of rofecoxib in one gram of excipient. Likewise, the contribution for solubility of a three-mixture was calculated to be ⅓ of the calculated solubility of rofecoxib in one gram of excipient. The expected solubility for a mixture is the addition of the contribution of each excipient. […] The percent change between the expected solubility and actual solubility was determined. […] Similar calculations are utilized for solvent systems containing three or more solvents.

CS(=O)(=O)c1ccc(C2=C(c3ccccc3)C(=O)OC2)cc1 [Rofecoxib]
Synergistic effect of three-solvent systems on dissolving rofecoxib (AC/PEG/PGD, BA/AC/PEG, BA/PEG/PGD, PC/AC/PGD, BA/AC/PGD, PC/PEG/PGD, DI/PC/AC, PC/BA/AC, DI/PC/BA, DI/PC/EA, PC/AC/PEG, DI/PC/DGME, DI/PC/PEG, DI/PC/PGD, DI/BA/PC, DI/PC/DMSO): work synergistically to dissolve rofecoxib | Synergistic effect of two-solvent systems on dissolving rofecoxib (BA/AC, AC/PEG, EA/PPG, PEG/EA, AC/DGME, AC/PC, AC/DI, PC/DI, PEG/PGD, AC/PGD, DI/PGD, PC/PGD, EA/DMSO, PEG/DGME, EA/DGME, EA/BA, DGME/PGD, BA/PGD, EA/M24D): work synergistically to dissolve rofecoxib | expected solubility of rofecoxib in 500 μg of acetone (contribution of acetone in system of equal amounts acetone and benzyl alcohol): 11.79 mg/g | expected solubility of rofecoxib in 500 μg of benzyl alcohol (contribution of benzyl alcohol in system of equal amounts acetone and benzyl alcohol): 9.77 mg/g | % Change (observed vs expected solubility) (in AC + DGME): 139.9% | Expected Solubility (in AC + DGME): 16.30 mg/g | Observed Solubility (in AC + DGME): 22.80 mg/g | % Change (observed vs expected solubility) (in AC + EA): 109.7% | Expected Solubility (in AC + EA): 14.52 mg/g | Observed Solubility (in AC + EA): 15.92 mg/g | % Change (observed vs expected solubility) (in AC + MP): 97.9% and 52.7% | Expected Solubility (in AC + MP): 110.77 mg/g | Observed Solubility (in AC + MP): 108.48 mg/g and 58.38 mg/g | % Change (observed vs expected solubility) (in AC + MP + PEG): 34.29% | Expected Solubility (in AC + MP + PEG): 78.24 mg/g | % Change (observed vs expected solubility) (in AC + MP + PGD): 77.19% | Expected Solubility (in AC + MP + PGD): 76.17 mg/g | % Change (observed vs expected solubility) (in AC + PEG): 137.2% and 174.3% | Expected Solubility (in AC + PEG): 18.34 mg/g | Observed Solubility (in AC + PEG): 25.15 mg/g and 31.96 mg/g | Expected Solubility (in AC + PEG + PGD): 14.55 mg/g | % Change (observed vs expected solubility) (in AC + PGD): 124.0% and 113.7% | Expected Solubility (in AC + PGD): 15.23 mg/g | Observed Solubility (in AC + PGD): 18.88 mg/g and 17.32 mg/g | % Change (observed vs expected solubility) (in BA + AC): 150.7% and 134.8% and 100.7% and 185.3% | Expected Solubility (in BA + AC): 21.54 mg/g and 31.65 mg/g | Observed Solubility (in BA + AC): 32.46 mg/g and 29.03 mg/g and 31.86 mg/g and 39.91 mg/g | % Change (observed vs expected solubility) (in BA + AC + MP): 48.23% | Expected Solubility (in BA + AC + MP): 80.37 mg/g | Expected Solubility (in BA + AC + PEG): 18.75 mg/g | % Change (observed vs expected solubility) (in BA + AC + PGD): 197.12% | Expected Solubility (in BA + AC + PGD): 16.68 mg/g | Observed Solubility (in BA + AC + PGD): 32.89 mg/g | Expected Solubility (in BA + AC, listed as rofecoxib): 21.56 mg/g | % Change (observed vs expected solubility) (in BA + DGME): 64.2% | Expected Solubility (in BA + DGME): 14.31 mg/g | Observed Solubility (in BA + DGME): 9.18 mg/g | % Change (observed vs expected solubility) (in BA + EA): 116.8% | Expected Solubility (in BA + EA): 12.52 mg/g | Observed Solubility (in BA + EA): 14.63 mg/g | % Change (observed vs expected solubility) (in BA + MP): 41.3% and 30.8% | Expected Solubility (in BA + MP): 108.77 mg/g | Observed Solubility (in BA + MP): 44.97 mg/g and 33.53 mg/g | % Change (observed vs expected solubility) (in BA + MP + PEG): 40.43% | Expected Solubility (in BA + MP + PEG): 76.89 mg/g | % Change (observed vs expected solubility) (in BA + MP + PGD): 85.42% | Expected Solubility (in BA + MP + PGD): 74.82 mg/g | % Change (observed vs expected solubility) (in BA + PEG): 63.2% and 61.6% and 60.6% | Expected Solubility (in BA + PEG): 16.34 mg/g | Observed Solubility (in BA + PEG): 10.33 mg/g and 10.06 mg/g and 9.91 mg/g | Expected Solubility (in BA + PEG + PGD): 13.20 mg/g | % Change (observed vs expected solubility) (in BA + PGD): 110.9% and 103.2% | Expected Solubility (in BA + PGD): 13.24 mg/g | Observed Solubility (in BA + PGD): 14.67 mg/g and 13.66 mg/g | % Change (observed vs expected solubility) (in DGME + EA): 117.3% | Expected Solubility (in DGME + EA): 7.29 mg/g | Observed Solubility (in DGME + EA): 8.54 mg/g | % Change (observed vs expected solubility) (in DGME + PGD): 115.7% | Expected Solubility (in DGME + PGD): 8.00 mg/g | Observed Solubility (in DGME + PGD): 9.26 mg/g | % Change (observed vs expected solubility) (in DI + AC): 134.6% | Expected Solubility (in DI + AC): 31.34 mg/g | Observed Solubility (in DI + AC): 42.18 mg/g | % Change (observed vs expected solubility) (in DI + BA): 72.3% | Expected Solubility (in DI + BA): 29.34 mg/g | Observed Solubility (in DI + BA): 21.20 mg/g | % Change (observed vs expected solubility) (in DI + BA + DMSO): 85.05% | Expected Solubility (in DI + BA + DMSO): 67.43 mg/g | % Change (observed vs expected solubility) (in DI + BA + PC): 155.19% | Expected Solubility (in DI + BA + PC): 36.04 mg/g | Observed Solubility (in DI + BA + PC): 55.93 mg/g | % Change (observed vs expected solubility) (in DI + DGME): 95.0% | Expected Solubility (in DI + DGME): 24.11 mg/g | Observed Solubility (in DI + DGME): 22.91 mg/g | % Change (observed vs expected solubility) (in DI + EA): 69.9% | Expected Solubility (in DI + EA): 22.32 mg/g | Observed Solubility (in DI + EA): 15.60 mg/g | % Change (observed vs expected solubility) (in DI + MP): 71.6% | Expected Solubility (in DI + MP): 118.57 mg/g | Observed Solubility (in DI + MP): 84.92 mg/g | % Change (observed vs expected solubility) (in DI + PC): 133.9% and 130.6% | Expected Solubility (in DI + PC): 44.29 mg/g | Observed Solubility (in DI + PC): 59.30 mg/g and 57.83 mg/g | % Change (observed vs expected solubility) (in DI + PC + AC): 143.72% | Expected Solubility (in DI + PC + AC): 37.38 mg/g | Observed Solubility (in DI + PC + AC): 53.73 mg/g | % Change (observed vs expected solubility) (in DI + PC + BA): 132.30% | Expected Solubility (in DI + PC + BA): 36.04 mg/g | Observed Solubility (in DI + PC + BA): 47.68 mg/g | % Change (observed vs expected solubility) (in DI + PC + DGME): 123.28% | Expected Solubility (in DI + PC + DGME): 32.55 mg/g | Observed Solubility (in DI + PC + DGME): 40.12 mg/g | % Change (observed vs expected solubility) (in DI + PC + DMSO): 114.83% | Expected Solubility (in DI + PC + DMSO): 77.39 mg/g | % Change (observed vs expected solubility) (in DI + PC + EA): 128.04% | Expected Solubility (in DI + PC + EA): 31.36 mg/g | Observed Solubility (in DI + PC + EA): 40.15 mg/g | % Change (observed vs expected solubility) (in DI + PC + PEG): 119.10% | Expected Solubility (in DI + PC + PEG): 33.90 mg/g | Observed Solubility (in DI + PC + PEG): 40.38 mg/g | % Change (observed vs expected solubility) (in DI + PC + PGD): 115.12% | Expected Solubility (in DI + PC + PGD): 31.83 mg/g | Observed Solubility (in DI + PC + PGD): 36.65 mg/g | % Change (observed vs expected solubility) (in DI + PEG): 105.8% | Expected Solubility (in DI + PEG): 26.14 mg/g | Observed Solubility (in DI + PEG): 27.65 mg/g
